The values below come from patent US11466013B2 (Betta Pharmaceuticals Co., LTD, priority 2018, dated 2022).

One assay addresses ERK1 (Homo sapiens, UniProt P27361). The assay is described as follows: Kinase assay (Caliper, FAM-labeled peptide), ERK1. Format: biochemical. The gist of the method:
(§1)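 Kinase preincubated 10 min at room temperature with serially diluted compound before FAM-labeled peptide plus ATP added; reaction run at 28 °C, then stopped. Substrate conversion read by Caliper mobility shift, normalized to DMSO and low controls, curve-fitted for IC50.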

The target of a further assay is ERK2 (Homo sapiens, UniProt P28482). The assay is described as follows: Kinase assay (Caliper, FAM-labeled peptide), ERK2. Format: biochemical. The gist of the method: as §1
Sequence of ERK2 (P28482 whole entry): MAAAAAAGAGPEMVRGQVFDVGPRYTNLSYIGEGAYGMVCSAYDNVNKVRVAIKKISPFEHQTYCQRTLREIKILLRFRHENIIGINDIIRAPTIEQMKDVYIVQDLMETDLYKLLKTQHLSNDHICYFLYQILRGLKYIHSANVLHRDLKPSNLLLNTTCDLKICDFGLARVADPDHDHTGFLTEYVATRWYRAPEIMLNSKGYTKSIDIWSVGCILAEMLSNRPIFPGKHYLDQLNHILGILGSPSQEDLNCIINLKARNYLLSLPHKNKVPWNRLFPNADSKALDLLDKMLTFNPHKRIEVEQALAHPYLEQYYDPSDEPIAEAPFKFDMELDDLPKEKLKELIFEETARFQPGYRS
For a further assay, the system named is COLO205 cells. The assay is described as follows: Cell proliferation assay (COLO205), Cell-titer Glo. Format: cell-based. As to conditions: Homo sapiens, COLO 205, 120 h incubation. The gist of the method:
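Cells seeded 2000/well overnight, then exposed to compound at 30000 down to 4.6 nM final (0.5% DMSO) for 120 h at 37° C, 5% CO2. CellTiter-Glo luminescence converted to % inhibition against DMSO and cell-free controls; IC50 by curve fit.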

Another assay concerns HCT 116 cells. Kind of assay: Cell proliferation assay (HCT 116), Cell-titer Glo. It is filed as cell-based. The following applies: Homo sapiens, 120 h incubation. On the procedure: The HCT 116 cells were paved in a 96-well plate at 1200 cells, 160 μL/well. After incubating overnight, the compound solutions of gradient concentration was prepared, and 40 μL of DMSO solution of the test compound of each concentration was added to the cells of each well. The final concentration of the compound was 30000, 10000, 3333.3, 1111.1, 370.4, 123.5, 41.2, 13.7, 4.6, 0 nM (the final concentration of DMSO was 0.5%). 5% CO2 was incubated for 120 h at 37° C. 50 μL of Cell-titer Glo working solution was added to each well, shaked and mixed, and incubated at room temperature for 10 minutes. The multi-functional microplate reader read the luminescence value, and converted the luminescence value reading into inhibition percentage. Inhibition percentage=(maximum value−reading)/(maximum value−minimum value)*100.
The “maximum value” was the DMSO control, the “minimum value” indicated the cell-free control group.
Graphpad Prism software was used to perform curve fitting and obtain IC50 value.

Sequence of ERK1 (P27361 whole entry): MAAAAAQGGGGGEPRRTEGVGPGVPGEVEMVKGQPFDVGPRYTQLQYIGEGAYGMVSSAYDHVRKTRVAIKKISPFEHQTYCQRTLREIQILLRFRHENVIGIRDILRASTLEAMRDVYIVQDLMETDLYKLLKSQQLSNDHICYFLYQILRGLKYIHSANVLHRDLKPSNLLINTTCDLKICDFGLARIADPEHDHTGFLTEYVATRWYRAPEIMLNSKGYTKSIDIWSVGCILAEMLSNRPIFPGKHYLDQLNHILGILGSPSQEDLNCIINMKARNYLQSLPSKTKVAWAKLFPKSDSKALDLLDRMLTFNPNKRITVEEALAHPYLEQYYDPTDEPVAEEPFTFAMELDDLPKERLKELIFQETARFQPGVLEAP

Usually IC50 stands for the point on the concentration scale where inhibition reaches its midpoint. Read a low IC50 as higher potency. Turning to `Cn1nccc1Nc1cc(-c2cc3n(c2)CCN(Cc2cc(F)ccc2CO)C3=O)c(Cl)cn1` [Example 50, 7-(5-Chloro-2-((1-methyl-1H-pyrazol-5-yl)amino)pyridin-4-yl)-2-(5-fluoro-2-(hydroxymethyl)benzyl)-3,4-dihydropyrrolo[1,2-a]pyrazine-1(2H)-one], the IC50 at ERK1 was 0.72 nM; at ERK2, 0.89 nM; in the assay with COLO205 cells it was 11.3 nM; with HCT 116 cells, 6.5 nM.
For `COC[C@H]1Cn2cc(-c3nc(Nc4ccnn4C)ncc3C)cc2C(=O)N1Cc1cc(F)ccc1CO` [Example 35, (R)-2-(5-fluoro-2-(hydroxymethyl)benzyl)-3-(methoxymethyl)-7-(5-methyl-2-((1-methyl-1H-pyrazol-5-yl)amino)pyrimidin-4-yl)-3,4-dihydropyrrolo[1,2-a]pyrazine-1(2H)-one] the same measures were 0.84 nM, 0.48 nM, 16.6 nM and 10.4 nM.
With `COC[C@H]1Cn2cc(-c3cc(Nc4ccnn4C)ncc3Cl)cc2C(=O)N1Cc1cc(F)ccc1CO` [Example 45, (R)-7-(5-chloro-2-((1-methyl-1H-pyrazol-5-yl)amino)pyridin-4-yl)-2-(5-fluoro-2-(hydroxymethyl)benzyl)-3-(methoxymethyl)-3,4-dihydropyrrolo[1,2-a]pyrazine-1(2H)-one], the IC50 against ERK1 is 0.9 nM; against ERK2, 1.2 nM; in the assay on COLO205 cells it was 3.3 nM; in the assay on HCT 116 cells, 6.2 nM.
Turning to `O=C1c2cc(-c3cc(NC4CCOCC4)ncc3Cl)cn2CCN1Cc1cc(F)ccc1CO` [Example 126, 7-(5-chloro-2-((tetrahydro-2h-pyran-4-yl)amino)pyridine-4-yl)-2-(5-fluoro-2-(hydroxymethyl)benzyl)-3,4-dihydropyrrolo[1,2-a] pyrazine-1(2H)-one], the IC50 against ERK1 is 0.57 nM; against ERK2, 0.32 nM; in the assay with COLO205 cells it was 30.3 nM; in the assay with HCT 116 cells, 14.3 nM.
With `Cn1nccc1Nc1cc(-c2cc3n(c2)CCN(Cc2cc(F)c(F)cc2CO)C3=O)c(Cl)cn1` [Example 160, 7-(5-chloro-2-((1-methyl-1h-pyrazole-5-yl)amino)pyridine-4-yl)-2-(4,5-difluoro-2-(hydroxymethyl)benzyl)-3,4-dihydropyrrolo[1,2-a] pyrazine-1(2H)-one], the IC50 against ERK2 stood at 0.89 nM; with COLO205 cells, 11.4 nM; in the assay with HCT 116 cells, 10.7 nM.
On to `CC(C)Nc1cc(-c2cc3n(c2)CC(CO)(CO)CN(Cc2cc(F)ccc2CO)C3=O)c(Cl)cn1` [Example 29, 8-(5-chloro-2-(isopropylamino)pyridin-4-yl)-2-(5-fluoro-2-(hydroxymethyl)benzyl)-4,4-bis (hydroxymethyl)-2,3,4,5-tetrahydro-1h-pyrrolo[1,2-a][1,4] diazepine-1-one], for which the IC50 at ERK1 was 0.68 nM; at ERK2 it was 0.83 nM; in the assay with COLO205 cells it was 7.6 nM; with HCT 116 cells, 6.3 nM.
With `COC[C@H]1Cn2cc(-c3cc(NC4CCOCC4)ncc3Cl)cc2C(=O)N1Cc1cc(F)ccc1CO` [Example 62, (R)-7-(5-chloro-2-((tetrahydro-2h-pyran-4-yl)amino)pyridine-4-yl)-2-(5-fluoro-2-(hydroxymethyl)benzyl)-3-(methoxymethyl)-3,4-dihydropyrrolo[1,2-a] pyrazine-1(2H)-one], the IC50 came to 0.93 nM against ERK1, 0.39 nM on ERK2, 17.5 nM with COLO205 cells and 7.99 nM in the assay with HCT 116 cells.
For the compound `COC[C@H]1Cn2cc(-c3cc(Nc4ccnn4C)ncc3Cl)cc2C(=O)N1Cc1cc(F)c(F)c(F)c1CO` [Example 168, (R)-7-(5-chloro-2-((1-methyl-1h-pyrazole-5-yl)amino)pyridine-4-yl)-3-(methoxymethyl)-2-(3,4,5-fluoro-2-(hydroxymethyl)benzyl)-3,4-dihydropyrrolo[1,2-a] pyrazine-1(2H)-one], the IC50 came out at 0.59 nM on ERK2, 11 nM in the assay with COLO205 cells and 8.4 nM in the assay on HCT 116 cells.
For `Cc1cnc(Nc2ccnn2C)cc1-c1cc2n(c1)CCN(Cc1cc(F)ccc1CO)C2=O` [Example 152, 2-(5-fluoro-2-(hydroxymethyl)benzyl)-7-(5-methyl-2-((1-methyl-1h-pyrazole-5-yl)amino)pyridine-4-yl)-3,4-dihydropyrrolo[1,2-a] pyrazine-1(2H)-one] the same measures were 0.3 nM, 14.3 nM and 7.6 nM.
As to `Cn1nccc1Nc1cc(-c2cc3n(c2)CCN(Cc2cc(F)cc(F)c2CO)C3=O)c(Cl)cn1` [Example 148, 7-(5-chloro-2-((1-methyl-1h-pyrazole-5-yl)amino)pyridine-4-yl)-2-(3,5-difluoro-2-(hydroxymethyl)benzyl)-3,4-dihydropyrrolo[1,2-a] pyrazine-1(2H)-one], the IC50 stood at 0.7 nM on ERK2, 12.9 nM in the assay with COLO205 cells and 6.3 nM with HCT 116 cells.
